For the experiment, the target named is human IDO1 (Homo sapiens, UniProt P14902). Description: Assessment of human IDO-1 inhibitory activity in HEK cells (human IDO1/HEK293 cells, kynurenine read-out with Ehrlich reagent, absorbance 490 nm). In kind it is cell-based. Also noted: expressed in transfected cells. The following applies: HEK Human IDO-1 cellular assay. The procedure, abridged:
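Kynurenine output from stably IDO1-transfected HEK293 cells (10,000/well, phenol red-free RPMI, 10% FBS) after 20 h compound exposure at 37 °C. The reaction was stopped with 0.2% TCA and heated 30 min at 50 °C, then the supernatant was mixed with Ehrlich reagent and read at 490 nm. IC50 was set against DMSO and a 500 nM reference standard as 0 and 100% inhibition.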

Molecules are shown by their SMILES.

Sequence of human IDO1 (P14902 whole entry): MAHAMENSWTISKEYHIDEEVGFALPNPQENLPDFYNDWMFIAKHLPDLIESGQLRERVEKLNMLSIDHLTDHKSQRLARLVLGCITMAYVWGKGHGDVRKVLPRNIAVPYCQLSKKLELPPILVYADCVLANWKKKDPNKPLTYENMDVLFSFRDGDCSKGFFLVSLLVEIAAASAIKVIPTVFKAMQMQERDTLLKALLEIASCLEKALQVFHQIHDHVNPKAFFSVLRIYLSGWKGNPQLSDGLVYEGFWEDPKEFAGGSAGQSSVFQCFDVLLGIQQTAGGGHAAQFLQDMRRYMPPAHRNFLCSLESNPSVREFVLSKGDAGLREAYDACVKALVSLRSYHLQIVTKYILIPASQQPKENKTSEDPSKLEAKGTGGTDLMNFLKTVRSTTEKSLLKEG

As to `CC(C)CN(c1ccc(C(CC(=O)O)C2CC2)cc1NC(=O)Nc1ccc(Cl)cc1F)C1CCOCC1` (single isomer, unassigned) [Example 1199 Enantiomer 1, 3-(3-(3-(4-Chloro-2-fluorophenyl)ureido)-4-(isobutyl(tetrahydro-2H-pyran-4-yl)amino)phenyl)-3-cyclopropylpropanoic acid], the IC50 (usually the concentration that inhibits the measured activity by half) is under 5 nM.

With `Cc1cc(NC(=O)Nc2cc(C(CC(=O)O)C3CC3)ccc2N(CC(C)C)C2CCOCC2)no1` (single isomer, unassigned) [Example 1201 Enantiomer 1, 3-Cyclopropyl-3-(4-(isobutyl(tetrahydro-2H-pyran-4-yl)amino)-3-(3-(5-methylisoxazol-3-yl)ureido)phenyl)propanoic acid], the IC50 is under 50 nM.

For the compound `CCOc1ccc(NC(=O)Nc2cc(C(CC(=O)O)C3CC3)ccc2N(CC(C)C)C2CCOCC2)cc1` (single isomer, unassigned) [Example 1205 Enantiomer 1, 3-Cyclopropyl-3-(3-(3-(4-ethoxyphenyl)ureido)-4-(isobutyl(tetrahydro-2H-pyran-4-yl)amino)phenyl)propanoic acid], the IC50 is under 50 nM. For `CC(C)CN(c1ccc(C(CC(=O)O)C2CC2)cc1NC(=O)Nc1cncnc1)C1CCOCC1` (single isomer, unassigned) [Example 1207 Enantiomer 1, 3-Cyclopropyl-3-(4-(isobutyl(tetrahydro-2H-pyran-4-yl)amino)-3-(3-(pyrimidin-5-yl)ureido)phenyl)propanoic acid], the IC50 is over 50 nM.

On to `COCC(CC(=O)O)c1ccc(N(CC(C)C)C2CCOCC2)c(NC(=O)Nc2ccc(C)cc2)c1` (single isomer, unassigned) [Example 1209, 3-(4-(Isobutyl(tetrahydro-2H-pyran-4-yl)amino)-3-(3-(p-tolyl)ureido)phenyl)-4-methoxybutanoic acid], for which the IC50 is over 50 nM. As to `COCC(CC(=O)O)c1ccc(N(CC(C)C)C2CCOCC2)c(NC(=O)Nc2ccc(Cl)cc2F)c1` (single isomer, unassigned) [Example 1210, 3-(3-(3-(4-Chloro-2-fluorophenyl)ureido)-4-(isobutyl(tetrahydro-2H-pyran-4-yl)amino)phenyl)-4-methoxybutanoic acid], the IC50 was under 50 nM. As to `COCC(CC(=O)O)c1ccc(N(CC(C)C)C2CCOCC2)c(NC(=O)Nc2ccc(OC(F)(F)F)cc2)c1` (single isomer, unassigned) [Example 1211, 3-(4-(Isobutyl(tetrahydro-2H-pyran-4-yl)amino)-3-(3-(4-(trifluoromethoxy)phenyl)ureido)phenyl)-4-methoxybutanoic acid], the IC50 was over 50 nM. Turning to `CCOc1ccc(NC(=O)Nc2cc(C(COC)CC(=O)O)ccc2N(CC(C)C)C2CCOCC2)cc1` (single isomer, unassigned) [Example 1212, 3-(3-(3-(4-Ethoxyphenyl)ureido)-4-(isobutyl(tetrahydro-2H-pyran-4-yl)amino)phenyl)-4-methoxybutanoic acid], the IC50 was over 50 nM. In the case of `COCC(CC(=O)O)c1ccc(N(CC(C)C)C2CCOCC2)c(NC(=O)Nc2cc(C)on2)c1` (single isomer, unassigned) [Example 1213, 3-(4-(Isobutyl(tetrahydro-2H-pyran-4-yl)amino)-3-(3-(5-methylisoxazol-3-yl)ureido)phenyl)-4-methoxybutanoic acid] it was over 50 nM; in that of `COCC(CC(=O)O)c1ccc(N(CC(C)C)C2CCOCC2)c(NC(=O)Nc2ccc(OC)cc2F)c1` (single isomer, unassigned) [Example 1214, 3-(3-(3-(2-Fluoro-4-methoxyphenyl)ureido)-4-(isobutyl(tetrahydro-2H-pyran-4-yl)amino)phenyl)-4-methoxybutanoic acid], over 50 nM. `CCOc1ccc(NC(=O)Nc2cc(C(COC)CC(=O)O)ccc2N(CC(C)C)C2CCOCC2)c(F)c1` (single isomer, unassigned) [Example 1215, 3-(3-(3-(4-Ethoxy-2-fluorophenyl)ureido)-4-(isobutyl(tetrahydro-2H-pyran-4-yl)amino)phenyl)-4-methoxybutanoic acid]: the IC50 is over 50 nM.
